# From ChEMBL document CHEMBL4000195, “Design and synthesis of novel 7-aminosubstituted pyrido[2,3-b]pyrazines exhibiting anti-breast cancer activity” (Eur J Med Chem, 2017)
# Activity calls are given as the source filed them. The rule behind the calls is not given here.
# How the values were obtained:
# Mus musculus [1] = assay: In vivo inhibition of ERK1/2 phosphorylation at Thr202/Tyr204 residue in NOD/SCID mouse tumor xenografted with HER2-amplified human HCC1954 cells at 10 mg/kg, ip administered once daily for 18 days measured after 1 hr last dose; assay type: functional, organism-based
# [2] = target: Platelet-derived growth factor receptor beta (Homo sapiens) (UniProt P09619); assay: Inhibition of recombinant human GST-tagged PDGFR-beta (557-end residues) transphosphorylation activity expressed in baculovirus infected Sf9 cells using poly[Glu:Tyr] (4:1) as substrate after 60 mins
# [3] = Cmax in NOD/SCID mouse at 10 mg/kg, ip administered twice by LC-MS/MS method; assay type: ADME, organism-based; set-up: dose 10 mg/kg, route intraperitoneal; details: in vivo
# SK-BR-3 = assay: Cytotoxicity against human SKBR3 cells by MTT assay; assay type: functional, cell-based
# Mus musculus [4] = assay: Toxicity in NOD/SCID mouse assessed as phenotypic changes at 0.5 mg/kg, ip administered as single dose; assay type: organism-based; details: in vivo
# [5] = AUC (0 to 24 hrs) in NOD/SCID mouse at 10 mg/kg, ip administered twice by LC-MS/MS method; assay type: ADME, organism-based; set-up: time < 24 hr, dose 10 mg/kg, route intraperitoneal; details: in vivo
# [6] = target: Aurora kinase B/Inner centromere protein (Homo sapiens) (UniProt Q96GD4+Q9NQS7); assay: Inhibition of human AURKB/INCENP; assay type: protein-complex assay
# [7] = target: Insulin-like growth factor 1 receptor (Homo sapiens) (UniProt P08069); assay: Inhibition of human wild type partial length IGF1R (L972 to D1294 residues) expressed in bacterial expression system at 10 uM by KinomeScan method relative to control
# [8] = target: Mast/stem cell growth factor receptor Kit (Homo sapiens) (UniProt P10721); assay: Inhibition of recombinant human GST-tagged KIT (544-end residues) transphosphorylation activity expressed in baculovirus infected Sf9 cells using poly[Glu:Tyr] (4:1) as substrate after 60 mins
# MCF7 = assay: Cytotoxicity against human MCF7 cells at 10 uM by MTT assay; assay type: functional
# Sus scrofa = organism: Sus scrofa; assay: Inhibition of pig CK1delta/epsilon
# [9] = target: Phosphatidylinositol 4,5-bisphosphate 3-kinase catalytic subunit alpha isoform (Homo sapiens, UniProt P42336); assay: Inhibition of PI3Kalpha catalytic domain (unknown origin) using PIP2 liposomes as substrate in presence of biotin-labeled PIP3 and GST-GRP1-PH by streptavidin-HRP based assays
# [10] = target: Vascular endothelial growth factor receptor 2 (Homo sapiens) (UniProt P35968); assay: Inhibition of recombinant human GST-tagged VEGFR-2 (789-end residues) transphosphorylation activity expressed in baculovirus infected Sf9 cells using poly[Glu:Tyr] (4:1) as substrate after 60 mins
# [11] = AUC (0 to 8 hrs) in NOD/SCID mouse at 0.5 mg/kg, ip administered as single dose by LC-MS/MS method; assay type: ADME, organism-based; set-up: dose 0.5 mg/kg, time < 8 hr, route intraperitoneal; details: in vivo
# [12] = target: Tyrosine-protein kinase BTK (Homo sapiens) (UniProt Q06187); assay: Inhibition of human wild type full length BTK (M1 to S659 residues) expressed in mammalian expression system at 10 uM by KinomeScan method relative to control
# [13] = target: Macrophage colony-stimulating factor 1 receptor (Homo sapiens) (UniProt P07333); assay: Inhibition of human wild type partial length CSF1R (I564 to S939 residues) expressed in bacterial expression system at 10 uM by KinomeScan method relative to control
# [14] = target: Mitogen-activated protein kinase 1 (Homo sapiens) (UniProt P28482); assay: Inhibition of human wild type full length ERK2 (M1 to S360 residues) expressed in bacterial expression system at 10 uM by KinomeScan method relative to control
# [15] = Cmax in NOD/SCID mouse at 0.5 mg/kg, po administered as single dose by LC-MS/MS method; assay type: ADME, organism-based; set-up: dose 0.5 mg/kg, route oral; details: in vivo
# [16] = Tmax in NOD/SCID mouse at 10 mg/kg, ip administered as single dose by LC-MS/MS method; assay type: ADME, organism-based; details: in vivo
# Mus musculus [17] = assay: In vivo inhibition of Akt phosphorylation at Ser473 residue in NOD/SCID mouse tumor xenografted with HER2-amplified human HCC1954 cells at 10 mg/kg, ip administered once daily for 18 days measured after 1 hr last dose; assay type: functional, organism-based
# [18] = Tmax in NOD/SCID mouse at 0.5 mg/kg, po administered as single dose by LC-MS/MS method; assay type: ADME, organism-based; details: in vivo
# [19] = target: Serine/threonine-protein kinase 4 (Homo sapiens) (UniProt Q13043); assay: Inhibition of human wild type full length MST1 (M1 to F487 residues) expressed in bacterial expression system at 10 uM by KinomeScan method relative to control
# Mus musculus [20] = assay: In vivo inhibition of SRC phosphorylation in NOD/SCID mouse tumor xenografted with HER2-amplified human HCC1954 cells at 10 mg/kg, ip administered once daily for 18 days measured after 1 hr last dose; assay type: functional, organism-based
# [21] = target: Receptor-interacting serine/threonine-protein kinase 3 (Homo sapiens) (UniProt Q9Y572); assay: Inhibition of human RIPK3
# HCC1954 [22] = assay: Anti-tumor activity against HER2-amplified human HCC1954 cells xenografted in NOD/SCID mouse assessed as tumor size at 10 mg/kg, ip administered once daily for 18 days measured after 1 hr last dose (reference value: 497 +/- 82 mm3); assay type: functional
# Mus musculus [23] = assay: Toxicity in NOD/SCID mouse assessed as change in body weight at 10 mg/kg, ip administered once daily for 18 days measured after 1 hr last dose; assay type: organism-based; details: in vivo
# [24] = Tmax in NOD/SCID mouse at 40 mg/kg, ip administered as single dose by LC-MS/MS method; assay type: ADME, organism-based; details: in vivo
# Mus musculus [25] = assay: In vivo inhibition of ERK1/2 phosphorylation at Thr202/Tyr204 residue in NOD/SCID mouse tumor xenografted with HER2-amplified human HCC1954 cells at 10 mg/kg, ip administered once daily for 18 days measured after 1 hr last dose by […]; assay type: functional, organism-based
# HCC1954 [26] = assay: Cytotoxicity against human HCC1954 cells at 10 uM by MTT assay; assay type: functional
# [27] = target: Ephrin type-A receptor 1 (Homo sapiens) (UniProt P21709); assay: Inhibition of human wild type partial length EPHA1 (V588 to I913 residues) expressed in bacterial expression system at 10 uM by KinomeScan method relative to control
# [28] = target: Tyrosine-protein kinase HCK (Homo sapiens) (UniProt P08631); assay: Inhibition of human wild type full length HCK (M22 to P526 residues) expressed in bacterial expression system at 10 uM by KinomeScan method relative to control
# [29] = target: Vascular endothelial growth factor receptor 2 (Homo sapiens) (UniProt P35968); assay: Inhibition of human wild type partial length VEGFR2 (R787 to P1253 residues) expressed in mammalian expression system at 10 uM by KinomeScan method relative to control
# HCC1954 [30] = assay: Cytotoxicity against human HCC1954 cells by MTT assay; assay type: functional, cell-based
# [31] = target: Mitogen-activated protein kinase kinase kinase 1 (Homo sapiens) (UniProt Q13233); assay: Inhibition of human wild type partial length MAP3K1 (L1202 to W1512 residues) expressed in mammalian expression system at 10 uM by KinomeScan method relative to control
# Sequence of Vascular endothelial growth factor receptor 2 (Homo sapiens) (P35968 whole entry, the tested form may be a part): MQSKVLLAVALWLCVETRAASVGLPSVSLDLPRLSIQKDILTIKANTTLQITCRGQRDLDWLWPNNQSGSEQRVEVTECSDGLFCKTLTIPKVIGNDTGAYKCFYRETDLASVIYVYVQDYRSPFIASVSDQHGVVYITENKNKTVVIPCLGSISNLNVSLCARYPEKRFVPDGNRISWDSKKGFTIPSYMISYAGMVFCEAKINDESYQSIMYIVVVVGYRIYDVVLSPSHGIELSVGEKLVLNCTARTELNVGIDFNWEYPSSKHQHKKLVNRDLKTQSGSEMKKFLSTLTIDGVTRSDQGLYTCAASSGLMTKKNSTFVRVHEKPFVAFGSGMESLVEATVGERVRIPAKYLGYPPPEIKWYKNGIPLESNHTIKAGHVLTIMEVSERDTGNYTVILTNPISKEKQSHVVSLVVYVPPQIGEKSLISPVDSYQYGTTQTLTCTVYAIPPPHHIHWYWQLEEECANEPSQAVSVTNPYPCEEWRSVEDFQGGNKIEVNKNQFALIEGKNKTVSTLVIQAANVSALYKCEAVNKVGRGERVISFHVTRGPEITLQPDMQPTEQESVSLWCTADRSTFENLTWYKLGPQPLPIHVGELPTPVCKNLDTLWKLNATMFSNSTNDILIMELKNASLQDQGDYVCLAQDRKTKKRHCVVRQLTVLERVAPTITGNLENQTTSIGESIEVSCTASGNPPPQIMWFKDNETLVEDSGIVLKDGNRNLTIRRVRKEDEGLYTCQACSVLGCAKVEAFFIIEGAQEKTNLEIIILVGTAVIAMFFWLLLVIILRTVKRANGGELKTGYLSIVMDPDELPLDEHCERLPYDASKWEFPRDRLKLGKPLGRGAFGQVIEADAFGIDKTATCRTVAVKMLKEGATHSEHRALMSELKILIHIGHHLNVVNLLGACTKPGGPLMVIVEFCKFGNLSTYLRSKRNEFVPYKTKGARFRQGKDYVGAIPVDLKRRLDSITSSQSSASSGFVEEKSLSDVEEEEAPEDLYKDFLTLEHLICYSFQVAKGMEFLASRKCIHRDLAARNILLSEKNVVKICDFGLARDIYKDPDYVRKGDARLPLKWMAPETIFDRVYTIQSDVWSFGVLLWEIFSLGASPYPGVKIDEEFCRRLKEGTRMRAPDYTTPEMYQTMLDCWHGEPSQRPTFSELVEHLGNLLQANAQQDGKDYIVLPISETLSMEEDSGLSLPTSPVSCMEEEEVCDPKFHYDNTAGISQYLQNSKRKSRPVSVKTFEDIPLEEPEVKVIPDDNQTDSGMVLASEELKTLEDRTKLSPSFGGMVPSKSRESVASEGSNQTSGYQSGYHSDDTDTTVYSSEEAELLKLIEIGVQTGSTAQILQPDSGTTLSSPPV
# Sequence of Insulin-like growth factor 1 receptor (Homo sapiens) (P08069 31-736 limits assumed): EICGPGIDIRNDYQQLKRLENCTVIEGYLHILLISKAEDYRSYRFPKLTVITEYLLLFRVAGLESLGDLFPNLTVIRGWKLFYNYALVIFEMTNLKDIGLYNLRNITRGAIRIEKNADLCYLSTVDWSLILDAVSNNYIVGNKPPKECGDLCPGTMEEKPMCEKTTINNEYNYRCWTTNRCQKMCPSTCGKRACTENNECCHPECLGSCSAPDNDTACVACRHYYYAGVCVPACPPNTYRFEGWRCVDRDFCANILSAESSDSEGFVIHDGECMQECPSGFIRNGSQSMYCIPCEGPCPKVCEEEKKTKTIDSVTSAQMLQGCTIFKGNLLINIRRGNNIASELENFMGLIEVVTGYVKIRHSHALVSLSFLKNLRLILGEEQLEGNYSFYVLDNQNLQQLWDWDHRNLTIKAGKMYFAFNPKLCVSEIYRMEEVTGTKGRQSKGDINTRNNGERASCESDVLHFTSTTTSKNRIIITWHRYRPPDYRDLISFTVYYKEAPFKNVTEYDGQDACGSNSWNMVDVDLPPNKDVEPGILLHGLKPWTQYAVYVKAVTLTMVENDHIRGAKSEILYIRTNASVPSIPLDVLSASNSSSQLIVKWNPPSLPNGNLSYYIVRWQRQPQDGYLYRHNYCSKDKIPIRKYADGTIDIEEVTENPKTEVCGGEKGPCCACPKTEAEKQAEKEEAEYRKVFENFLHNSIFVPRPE
# Sequence of Insulin-like growth factor 1 receptor (Homo sapiens) (P08069 741-1367 limits assumed): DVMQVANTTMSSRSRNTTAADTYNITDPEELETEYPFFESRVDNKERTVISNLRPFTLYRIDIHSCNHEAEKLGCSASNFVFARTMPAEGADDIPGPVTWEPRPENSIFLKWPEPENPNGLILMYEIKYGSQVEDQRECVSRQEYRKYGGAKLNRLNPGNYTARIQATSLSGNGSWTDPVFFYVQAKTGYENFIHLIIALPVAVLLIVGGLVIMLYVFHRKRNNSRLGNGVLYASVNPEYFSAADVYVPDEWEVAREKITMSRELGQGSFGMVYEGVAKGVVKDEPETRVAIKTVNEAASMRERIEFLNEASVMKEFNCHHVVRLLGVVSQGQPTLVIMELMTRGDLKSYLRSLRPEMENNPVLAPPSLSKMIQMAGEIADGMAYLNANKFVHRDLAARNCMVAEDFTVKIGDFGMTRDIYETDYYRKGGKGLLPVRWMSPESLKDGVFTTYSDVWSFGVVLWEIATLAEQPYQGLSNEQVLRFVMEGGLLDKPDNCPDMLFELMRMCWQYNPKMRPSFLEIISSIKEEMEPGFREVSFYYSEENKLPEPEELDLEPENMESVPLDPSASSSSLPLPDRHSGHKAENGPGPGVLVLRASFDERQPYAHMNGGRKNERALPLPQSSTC
# Sequence of Macrophage colony-stimulating factor 1 receptor (Homo sapiens) (P07333 whole entry, the tested form may be a part): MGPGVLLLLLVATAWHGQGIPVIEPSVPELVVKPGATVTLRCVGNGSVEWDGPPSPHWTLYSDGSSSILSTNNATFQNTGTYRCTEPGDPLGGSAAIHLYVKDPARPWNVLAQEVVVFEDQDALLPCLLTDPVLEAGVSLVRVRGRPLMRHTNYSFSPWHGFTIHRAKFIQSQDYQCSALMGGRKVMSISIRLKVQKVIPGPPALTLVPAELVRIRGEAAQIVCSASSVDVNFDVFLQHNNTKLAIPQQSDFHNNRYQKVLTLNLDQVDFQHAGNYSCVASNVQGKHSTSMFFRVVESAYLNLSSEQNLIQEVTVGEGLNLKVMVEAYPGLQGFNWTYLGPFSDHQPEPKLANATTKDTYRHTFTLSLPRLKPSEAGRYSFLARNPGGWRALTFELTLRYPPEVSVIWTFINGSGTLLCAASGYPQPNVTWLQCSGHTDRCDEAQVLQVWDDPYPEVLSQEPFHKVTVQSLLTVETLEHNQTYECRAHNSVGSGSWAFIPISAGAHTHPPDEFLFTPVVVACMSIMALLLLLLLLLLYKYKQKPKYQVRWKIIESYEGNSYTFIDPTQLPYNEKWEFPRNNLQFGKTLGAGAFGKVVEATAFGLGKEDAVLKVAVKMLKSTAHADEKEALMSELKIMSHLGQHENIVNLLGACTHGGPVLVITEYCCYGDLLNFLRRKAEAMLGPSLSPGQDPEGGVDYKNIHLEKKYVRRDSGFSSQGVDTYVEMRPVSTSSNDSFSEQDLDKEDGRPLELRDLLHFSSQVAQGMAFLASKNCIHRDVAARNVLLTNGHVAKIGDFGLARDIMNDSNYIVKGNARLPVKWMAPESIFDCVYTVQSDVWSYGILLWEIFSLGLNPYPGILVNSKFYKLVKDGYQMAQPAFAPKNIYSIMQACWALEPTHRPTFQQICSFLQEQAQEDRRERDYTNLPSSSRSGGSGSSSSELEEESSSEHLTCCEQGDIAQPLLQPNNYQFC
# Sequence of Phosphatidylinositol 4,5-bisphosphate 3-kinase catalytic subunit alpha isoform (P42336 whole entry, the tested form may be a part, canonical isoform): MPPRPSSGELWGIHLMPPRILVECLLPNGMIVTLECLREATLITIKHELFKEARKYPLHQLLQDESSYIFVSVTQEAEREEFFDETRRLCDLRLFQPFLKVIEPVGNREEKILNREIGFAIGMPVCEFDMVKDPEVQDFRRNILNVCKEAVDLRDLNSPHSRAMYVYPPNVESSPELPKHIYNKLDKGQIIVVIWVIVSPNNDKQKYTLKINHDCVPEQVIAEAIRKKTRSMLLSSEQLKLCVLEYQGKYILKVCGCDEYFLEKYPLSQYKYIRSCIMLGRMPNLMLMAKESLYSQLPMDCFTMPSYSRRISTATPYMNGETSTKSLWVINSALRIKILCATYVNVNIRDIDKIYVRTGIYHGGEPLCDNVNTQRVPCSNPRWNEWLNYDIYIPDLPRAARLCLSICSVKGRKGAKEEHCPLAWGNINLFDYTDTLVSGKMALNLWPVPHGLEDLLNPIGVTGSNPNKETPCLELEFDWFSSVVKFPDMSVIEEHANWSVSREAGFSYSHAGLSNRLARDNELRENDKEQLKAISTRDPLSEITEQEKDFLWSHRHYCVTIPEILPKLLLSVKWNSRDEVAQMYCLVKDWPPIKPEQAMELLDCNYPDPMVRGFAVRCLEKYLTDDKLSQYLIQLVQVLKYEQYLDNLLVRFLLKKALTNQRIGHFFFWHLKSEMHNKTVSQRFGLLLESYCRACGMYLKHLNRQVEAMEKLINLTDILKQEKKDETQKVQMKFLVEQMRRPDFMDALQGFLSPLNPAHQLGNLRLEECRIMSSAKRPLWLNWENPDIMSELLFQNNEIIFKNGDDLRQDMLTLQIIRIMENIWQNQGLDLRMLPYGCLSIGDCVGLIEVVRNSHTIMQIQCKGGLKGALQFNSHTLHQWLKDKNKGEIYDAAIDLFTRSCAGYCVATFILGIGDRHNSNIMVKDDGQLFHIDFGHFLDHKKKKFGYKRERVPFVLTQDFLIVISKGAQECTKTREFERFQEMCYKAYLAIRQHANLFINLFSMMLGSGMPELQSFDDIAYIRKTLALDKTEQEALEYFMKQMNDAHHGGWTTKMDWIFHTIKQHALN
# Sequence of Mitogen-activated protein kinase 1 (Homo sapiens) (P28482 whole entry, the tested form may be a part): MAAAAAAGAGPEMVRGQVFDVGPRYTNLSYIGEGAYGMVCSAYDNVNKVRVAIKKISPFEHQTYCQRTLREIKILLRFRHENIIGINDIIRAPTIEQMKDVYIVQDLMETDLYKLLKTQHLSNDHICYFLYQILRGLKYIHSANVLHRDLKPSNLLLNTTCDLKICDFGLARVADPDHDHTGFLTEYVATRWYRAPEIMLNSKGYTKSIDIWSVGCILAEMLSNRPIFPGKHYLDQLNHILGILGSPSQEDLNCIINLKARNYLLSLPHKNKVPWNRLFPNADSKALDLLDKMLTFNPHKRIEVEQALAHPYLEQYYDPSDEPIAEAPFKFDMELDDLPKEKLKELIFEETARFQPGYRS
structure (smiles),measurement,setting,value
Cc1nc2nc(Sc3ccccc3)cnc2cc1NC(=O)Nc1ccccc1,inhibition,Mus musculus [1],Active
same,inhibition,[2],inactive
same,Cmax,[3],6.45 µM
same,IC50,SK-BR-3,1800 nM
same,Activity,Mus musculus [4],Non-Toxic
same,AUC(0-t) at 24 h,[5],70.8 µM·h
same,inhibition,[6],inactive
same,inhibition,[7],6%
same,inhibition,[8],inactive
same,Activity,MCF7,>50%
same,inhibition,Sus scrofa,inactive
same,IC50,[9],26000 nM
same,inhibition,[10],inactive
same,AUC(0-t) at 8 h,[11],2.85 µM·h
same,inhibition,[12],10%
same,inhibition,[13],0%
same,inhibition,[14],0%
same,Cmax,[15],0.47 µM
same,Tmax,[16],2 h
same,inhibition,Mus musculus [17],Active
same,Tmax,[18],1 h
same,inhibition,[19],0%
same,inhibition,Mus musculus [20],Active
same,inhibition,[21],inactive
same,Activity,HCC1954 [22],150 mm3
same,Activity,Mus musculus [23],Non-Toxic
same,Tmax,[24],2 h
same,inhibition,Mus musculus [25],Active
same,Activity,HCC1954 [26],>50%
same,inhibition,[27],9%
same,inhibition,[28],13%
same,inhibition,[29],1%
same,IC50,HCC1954 [30],1500 nM
same,inhibition,[31],0%
